Among the data in article PMC6068282, “In Silico Discovery of Plant-Origin Natural Product Inhibitors of Tumor Necrosis Factor (TNF) and Receptor Activator of NF-κB Ligand (RANKL)” (Frontiers in Pharmacology, 2018) are IC50 values, retold here.

Molecules are shown by their SMILES.

For the assay, the target named is T1, TNF / human TNF (TNF/TNFR1 ELISA) (Homo sapiens, UniProt P01375).
T1 construct: recombinant human TNF (soluble; biologically active homotrimer); with Tumor necrosis factor receptor superfamily member 1A
Kind of assay: ELISA, TNF binding to TNFR1. For orientation: ELISA stands for enzyme-linked immunosorbent assay.

A word on the IC50: it is the concentration that inhibits the measured activity by half. Low values mean greater potency, high ones weaker potency.

T1 sequence (P01375 77-233): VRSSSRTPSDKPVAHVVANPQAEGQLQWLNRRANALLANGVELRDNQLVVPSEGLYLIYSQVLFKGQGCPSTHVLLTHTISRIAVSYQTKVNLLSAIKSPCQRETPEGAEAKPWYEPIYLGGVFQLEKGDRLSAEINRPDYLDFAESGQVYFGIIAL

Consider `Oc1ccc([C@@H]2c3c(O)cc4c(c3[C@H]3[C@H](c5ccc(O)cc5)c5c(O)cc6c(c5[C@@H]23)[C@@H](c2cc(O)cc(O)c2)[C@H](c2ccc(O)cc2)O6)[C@@H](c2cc(O)cc(O)c2)[C@H](c2ccc(O)cc2)O4)cc1` [A11, (1R,2R,6R,6aR,7R,8R,12R,12aR)-1,7-Bis(3,5-dihydroxyphenyl)-2,6,8,12-tetrakis(4-hydroxyphenyl)-1,2,6,6a,7,8,12,12a-octahydrofuro[2″,3″:6′,7′]indeno[1′,2′:2,3]indeno [5,4-b]furan-5,11-diol], for which the half-inhibitory concentration (IC50) came out at 3.3 ± 0.9 µM.
Compound `C[C@@H]1O[C@@H](Oc2c(-c3ccc(O)cc3)oc3cc(O)cc(O)c3c2=O)[C@H](O[C@@H]2O[C@H](COC(=O)/C=C/c3ccc(O)cc3)[C@@H](O)[C@H](O)[C@H]2O)[C@H](O)[C@H]1O` [A25, [(2R,3S,4S,5R,6S)-6-[(2S,3R,4R,5R,6S)-2-[5,7-dihydroxy-2-(4-hydroxyphenyl)-4-oxochromen-3-yl]oxy-4,5-dihydroxy-6-methyloxan-3-yl]oxy-3,4,5-trihydroxyoxan-2-yl]methyl(E)-3-(4-hydroxyphenyl)prop-2-enoate] displayed an IC50 of 4.1 ± 1.7 µM.
